How the values were obtained:
Assay type in all cases: in vivo
Botrytis cinerea = experiment: Activity against gray mold on bell pepper leaves caused by Botrytis cinerea, 1 day protective application; details: 120 h, single active compound, 1 mg/l, efficacy in % of untreated control, after 5 days, control 100% infection, read-out: Observed activity (% infection)
Experimental: The active compounds, separately or jointly, were prepared as a stock solution comprising 25 mg of active compound which was made up to 10 ml using a mixture of acetone and/or dimethyl sulfoxide and the emulsifier Uniperol® EL (wetting agent having an emulsifying and dispersing action based on ethoxylated alkylphenols) in a ratio by volume of solvent/emulsifier of 99:1. The mixture was then made up to 100 ml with water. This stock solution was diluted with the solvent/emulsifier/water mixture described to give the concentration of active compound stated below. […]
(§1) The visually determined percentages of infected leaf areas were converted into efficacies in % of the untreated control.
(§2) The efficacy (E) is calculated as follows using Abbot's formula: […]
(§3) The expected efficacies of active compound mixtures were determined using Colby's formula [R. S. Colby, “Calculating synergistic and antagonistic responses of herbicide combinations”, Weeds 15, 20-22 (1967)] and compared with the observed efficacies. […]
Bell pepper seedlings of the cultivar “Neusiedler Ideal Elite” were, after 2-3 leaves were well developed, sprayed to runoff point with an aqueous suspension in the active compound concentration stated below. […] After 5 days, the extent of the fungal infection on the leaves could be determined visually in %.

Alternaria solani = experiment: Activity against early blight on tomatoes caused by Alternaria solani (protective spray, potted tomato plants); details: 120 h, single active compound, efficacy in % of untreated control (Abbot), evaluated after 5 days, control 90% infection, read-out: Observed activity (% infection); for inhibition at 1 µg/mL: 1 mg/l; for inhibition at 4 µg/mL: 4 mg/l
Experimental: (§4) The active compounds, separately or jointly, were prepared as a stock solution comprising 25 mg of active compound which was made up to 10 ml using a mixture of acetone and/or dimethyl sulfoxide and the emulsifier Uniperol® EL (wetting agent having an emulsifying and dispersing action based on ethoxylated alkylphenols) in a ratio by volume of solvent/emulsifier of 99:1. The mixture was then made up to 100 ml with water. This stock solution was diluted with the solvent/emulsifier/water mixture described to give the concentration of active compound stated below.
(§5) Alternatively, the active compounds epoxiconazole and pyraclostrobin were used as a commercial formulation and diluted with water to the stated active compound concentrations.
as §1, §2
(§6) α corresponds to the fungicidal infection of the treated plants in % and β corresponds to the fungicidal infection of the untreated (control) plants in %
(§7) An efficacy of 0 means that the infection level of the treated plants corresponds to that of the untreated control plants; an efficacy of 100 means that the treated plants were not infected.
(§8) The expected efficacies of active compound mixtures were determined using Colby's formula [R. S. Colby, “Calculating synergistic and antagonistic responses of herbicide combinations”, Weeds 15, 20-22 (1967)] and compared with the observed efficacies.
(§9) E=x+y−x·y/100 Colby's formula • E expected efficacy, expressed in % of the untreated control, when using the mixture of the active compounds A and B at the concentrations a and b; • x efficacy, expressed in % of the untreated control, when using the active compound A at the concentration a; • y efficacy, expressed in % of the untreated control, when using the active compound B at the concentration b;
Leaves of potted tomato plants were sprayed to runoff point with an aqueous suspension having the concentration of active compounds stated below. The next day, the leaves were infected with an aqueous spore suspension of Alternaria solani in a 2% biomalt solution having a density of 0.17×10^6 spores/ml. The plants were then placed in a water vapor-saturated chamber at temperatures between 20 and 22° C. After 5 days, the disease on the untreated, but infected control plants had developed to such an extent that the infection could be determined visually in %.

[1] = system: Pyrenophora [syn. Drechslera] teres; experiment: Activity against net blotch of barley caused by Pyrenophora teres, 1 day protective application; details: 144 h, single active compound, after 6 days, control 90% infection, read-out: Observed activity (% infection); for inhibition at 16 µg/mL: 16 mg/l
Experimental: as §4, §5, §1, §2, §6, §7, §3
Leaves of potted barley seedlings were sprayed to runoff point with an aqueous suspension having the concentration of active compound stated below. […] After 6 days, the extent of the development of the disease was determined visually in % infection of the entire leaf area.

Puccinia recondita [2] = experiment: Curative activity against brown rust of wheat caused by Puccinia recondita; details: 168 h, single active compound, sprayed the day after inoculation, 7 days, control 90% infection, read-out: Observed activity (% infection)
Experimental: as §4, §5, §1, §2, §3
Leaves of wheat seedlings of the cultivar “Kanzler” cultivated in pots were inoculated with a spore suspension of brown rust (Puccinia recondita). […] The extent of the rust fungus development on the leaves was then determined.

Puccinia recondita [3] = experiment: Protective activity against Puccinia recondita on wheat (brown rust of wheat); details: single active compound, control 90% infection, read-out: Observed activity (% infection)
Experimental: as §4, §5, §1, §2, §6, §7, §8, §9
Leaves of potted wheat seedlings of the cultivar “Kanzler” were sprayed to runoff point with an aqueous suspension having the concentration of active compound stated below. The next day the treated plants were inoculated with a spore suspension of brown rust of wheat (Puccinia recondita). The plants were then placed in a chamber at high atmospheric humidity (90 to 95%) at 20 to 22° C. for 24 hours. During this time, the spores germinated and the germ tubes penetrated into the leaf tissue. The next day, the test plants were returned to the greenhouse and cultivated at temperatures between 20 and 22° C. and 65 to 70% relative atmospheric humidity for a further 7 days. The extent of the rust fungus development on the leaves was then determined visually.

## COC(=O)N(OC)c1ccccc1COc1ccn(-c2ccc(Cl)cc2)n1 [pyraclostrobin, methyl N-{2-[1-(4-chlorophenyl)-1H-pyrazol-3-yloxymethyl]phenyl}(N-methoxy)carbamate]
Botrytis cinerea
  inhibition at 1 µg/mL: 0%

## Cn1cc(C(=O)Nc2ccccc2-c2ccc(F)cc2F)c(C(F)F)n1 [No. I.11, N-(2′,4′-difluorobiphenyl-2-yl)-1-methyl-3-difluoromethyl-1H-pyrazole-4-carboxamide]
Alternaria solani
  inhibition at 1 µg/mL: 0%
[1]; 4 mg/l
  inhibition at 4 µg/mL: 63%
Botrytis cinerea
  inhibition at 1 µg/mL: 0%

## Fc1ccc([C@]2(Cn3cncn3)O[C@H]2c2ccccc2Cl)cc1 (racemic) [epoxiconazole, (2RS,3SR)-1-[3-(2-chlorophenyl)-2,3-epoxy-2-(4-fluorophenyl)propyl]-1H-1,2,4-triazole]
Puccinia recondita [2]; 0.25 mg/l
  inhibition at 0.25 µg/mL: 0%
Puccinia recondita [3]; 0.063 mg/l
  inhibition at 0.063 µg/mL: 11%

## COc1ccc(C(=CC(=O)N2CCOCC2)c2ccc(Cl)cc2)cc1OC [dimethomorph, 3-(4-chlorophenyl)-3-(3,4-dimethoxyphenyl)-1-morpholin-4-ylpropenone]
Alternaria solani
  inhibition at 4 µg/mL: 0%
[1]
  inhibition at 16 µg/mL: 0%

## Cn1nc(C(F)(F)F)c(C(=O)Nc2ccccc2-c2ccc(Cl)cc2Cl)c1F [No. I.17, N-(2′,4′-dichlorobiphenyl-2-yl)-1-methyl-3-trifluoromethyl-5-fluoro-1H-pyrazole-4-carboxamide]
Alternaria solani
  inhibition at 1 µg/mL: 0%
Puccinia recondita [2]; 1 mg/l
  inhibition at 1 µg/mL: 0%
Puccinia recondita [3]; 16 mg/l
  inhibition at 16 µg/mL: 22%

## CC1CCN(c2c(-c3c(F)cc(F)cc3F)c(Cl)nc3ncnn23)CC1 [5-chloro-7-(4-methylpiperidin-1-yl)-6-(2,4,6-trifluorophenyl)-[1,2,4]triazolo[1,5-a]pyrimidine]
Alternaria solani
  inhibition at 4 µg/mL: 22%

## Cn1cc(C(=O)Nc2ccccc2-c2ccc(Cl)cc2Cl)c(C(F)F)n1 [No. I.7, N-(2′,4′-dichlorobiphenyl-2-yl)-1-methyl-3-difluoromethyl-1H-pyrazole-4-carboxamide]
Alternaria solani
  inhibition at 1 µg/mL: 0%
Puccinia recondita [3]; 0.25 mg/l
  inhibition at 0.25 µg/mL: 11%

## COc1cc(C)c(C(=O)c2c(OC)ccc(Br)c2C)c(OC)c1OC [metrafenone, 3′-bromo-2,3,4,6′-tetramethoxy-2′,6-dimethylbenzophenone]
[1]
  inhibition at 16 µg/mL: 0%
Puccinia recondita [3]; 63 mg/l
  inhibition at 63 µg/mL: 0%

Reference: patent US20090042724A1, “Fungicidal mixtures based on 2,4-disubstituted n-biphenylpyrazolecarboxamides” (priority 2005, published 2009)
